Test results published in ChEMBL document CHEMBL1201862, “PubChem BioAssay data set” (2004).
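Growth conditions: 96-well plates. Treatment: test compound, 48 hours, 5 concentrations. Analysis: linear interpolation between bracketing concentrations; unreached endpoints set to highest concentration. GI50 marks 50% less growth.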 Activity calls are given as the source filed them. Rule as the data show it: active = GI50 up to about 1.1 µM and inactive = higher.

Experiments:
Test in all cases: inhibition of tumour cell growth, NCI panel, 48 h
HL-60 = test system: HL-60
HOP-62 = test system: HOP-62
A498 = test system: A498
EKVX = test system: EKVX
MDA-MB-231 = test system: MDA-MB-231
OVCAR-5 = test system: OVCAR-5
CAKI-1 = test system: CAKI-1
SF-268 = test system: SF-268
RPMI-8226 = test system: RPMI-8226
MDA-N = test system: MDA-N
SNB-75 = test system: SNB-75
NCI-H460 = test system: NCI-H460
RXF 393 = test system: RXF 393
SK-MEL-5 = test system: SK-MEL-5
NCI-H226 = test system: NCI-H226
HCT-116 = test system: HCT-116
HOP-92 = test system: HOP-92
SK-OV-3 = test system: SK-OV-3
IGROV-1 = test system: IGROV-1
A549 = test system: A549

Row | SMILES | GI50 (HL-60) | GI50 (HOP-62) | GI50 (A498) | GI50 (EKVX) | GI50 (MDA-MB-231) | GI50 (OVCAR-5) | GI50 (CAKI-1) | GI50 (SF-268) | GI50 (RPMI-8226) | GI50 (MDA-N) | GI50 (SNB-75) | GI50 (NCI-H460) | GI50 (RXF 393) | GI50 (SK-MEL-5) | GI50 (NCI-H226) | GI50 (HCT-116) | GI50 (HOP-92) | GI50 (SK-OV-3) | GI50 (IGROV-1) | GI50 (A549)
1 | CCN(CC)CC[n+]1ccc2c(C)c3[nH]c4ccccc4c3c(C)c2c1 | 0.168 µM (active) | 1.22 µM (inactive) | 3.04 µM (inactive) | 1.02 µM (active) | 0.65 µM (active) | 1.61 µM (inactive) | 1.99 µM (inactive) | 0.164 µM (active) | 0.367 µM (active) | 0.675 µM (active) | 0.276 µM (active) | 0.251 µM (active) | 1.55 µM (inactive) | 0.401 µM (active) | – | – | – | – | – | –
2 | CC1=C(C)CC2C(=O)N(c3cc(C(C)(C)C)ccc3C(C)(C)C)C(=O)C2C1 (stereo not drawn) | > 100 µM (inactive) | 26.2 µM (inactive) | – | > 100 µM (inactive) | > 100 µM (inactive) | > 100 µM (inactive) | > 100 µM (inactive) | 7.91 µM (inactive) | > 100 µM (inactive) | > 100 µM (inactive) | 22.3 µM (inactive) | > 100 µM (inactive) | 23.8 µM (inactive) | > 100 µM (inactive) | > 100 µM (inactive) | 50 µM (inactive) | 26.2 µM (inactive) | 58.3 µM (inactive) | 61 µM (inactive) | 69.5 µM (inactive)
3 | c1ncn(C23C4C5C6C4C2C6C53)n1 (stereo not drawn) | > 100 µM (inactive) | > 100 µM (inactive) | > 100 µM (inactive) | > 100 µM (inactive) | > 100 µM (inactive) | > 100 µM (inactive) | – | > 100 µM (inactive) | > 100 µM (inactive) | > 100 µM (inactive) | > 100 µM (inactive) | > 100 µM (inactive) | – | > 100 µM (inactive) | > 100 µM (inactive) | > 100 µM (inactive) | – | > 100 µM (inactive) | > 100 µM (inactive) | > 100 µM (inactive)
4 | CCOC(=O)Nn1c(CC#N)nnc1Cc1ccccc1 | > 100 µM (inactive) | > 100 µM (inactive) | – | – | > 100 µM (inactive) | > 100 µM (inactive) | > 100 µM (inactive) | > 100 µM (inactive) | > 100 µM (inactive) | > 100 µM (inactive) | > 100 µM (inactive) | > 100 µM (inactive) | > 100 µM (inactive) | > 100 µM (inactive) | > 100 µM (inactive) | > 100 µM (inactive) | > 100 µM (inactive) | – | > 100 µM (inactive) | > 100 µM (inactive)
5 | O=C1N[C@H]2c3c(Cl)sc(Cl)c3/C(=N/O)[C@H]2O1 | 18.7 µM (inactive) | > 100 µM (inactive) | > 100 µM (inactive) | > 100 µM (inactive) | > 100 µM (inactive) | > 100 µM (inactive) | > 100 µM (inactive) | > 100 µM (inactive) | > 100 µM (inactive) | > 100 µM (inactive) | > 100 µM (inactive) | 76.4 µM (inactive) | > 100 µM (inactive) | > 100 µM (inactive) | – | 80.7 µM (inactive) | – | > 100 µM (inactive) | 72.3 µM (inactive) | > 100 µM (inactive)
6 | Cc1ccc(-c2nc(N/N=C/c3ccc(O)cc3)c3ccccc3n2)cc1 | 17.2 µM (inactive) | 31.9 µM (inactive) | – | 3.98 µM (inactive) | 19.4 µM (inactive) | 20.3 µM (inactive) | 10.8 µM (inactive) | 18.8 µM (inactive) | 40.7 µM (inactive) | 7.87 µM (inactive) | 16.8 µM (inactive) | 9.91 µM (inactive) | 21 µM (inactive) | 3.51 µM (inactive) | 21.5 µM (inactive) | 14.1 µM (inactive) | 32.4 µM (inactive) | 20.3 µM (inactive) | 8.47 µM (inactive) | 6.14 µM (inactive)
7 | COc1cc(OC)c(OC)cc1/C=C/c1cc[n+](C)c2ccccc12 | 14 µM (inactive) | 4.89 µM (inactive) | > 100 µM (inactive) | 50.2 µM (inactive) | – | > 100 µM (inactive) | > 100 µM (inactive) | 51.2 µM (inactive) | 21.2 µM (inactive) | 24.3 µM (inactive) | 47.4 µM (inactive) | 33.2 µM (inactive) | 53.1 µM (inactive) | 11 µM (inactive) | – | 27.8 µM (inactive) | 23.9 µM (inactive) | 52.2 µM (inactive) | 40 µM (inactive) | 25.9 µM (inactive)
8 | CC1(C)C[C@H](O)[C@H](O)[C@]23C(=O)O[C@H](O)[C@H]2C(C=O)=CC[C@@H]13 | > 100 µM (inactive) | > 100 µM (inactive) | – | > 100 µM (inactive) | > 100 µM (inactive) | – | > 100 µM (inactive) | > 100 µM (inactive) | > 100 µM (inactive) | > 100 µM (inactive) | > 100 µM (inactive) | > 100 µM (inactive) | > 100 µM (inactive) | > 100 µM (inactive) | > 100 µM (inactive) | > 100 µM (inactive) | – | – | > 100 µM (inactive) | > 100 µM (inactive)
